Five compounds from PMC10449621, “Engineering cellular communication between light-activated synthetic cells and bacteria” (Nature Chemical Biology, 2023) can be followed below.

The subject of test [1] is BjaRWT (B0033|ATG) receiver cells. Description: BjaR receiver cell AHSL dose-response (gfp reporter, plate reader). Format: cell-based, E. coli XL10-Gold. As to conditions: for Mean normalised fluorescence / Normalised fluorescence / GFP: sheet 3e; for Normalised fluorescence / GFP: Expt1-3; for GFP: raw fluorescence ex 488/em 510 nm. The source says: (§1) These findings are consistent with the predicted translation initiation rates of the respective sequences—translation from the BBa_B0033 RBS provides 1% of protein yield compared to the BBa_B0034 RBS, just as an CTG start codon provides 1% of the protein yield compared to an ATG start codon[30],[31]. This also offers support as to why the ON-state gfp expression level increased in variants with a tighter OFF-state; more cellular resources were available for GFP synthesis when comparatively fewer were allocated to BjaR synthesis. To elucidate the impact of the S107R variant on gene circuit performance, we introduced the S107R variant alone back into the bjaRWT gene, in the context of the BBa_B0033 RBS background.
(§2) In addition to quantifying how these BjaR receiver cells responded to their branched, cognate ligand, we also sought to determine whether the BjaR receiver cells could be activated by structurally dissimilar AHSLs involved in the LuxI/R, EsaI/R, LasI/R and RhlI/R QS systems previously used in synthetic cell communication[5],[7],[8]. To this end, we measured the fluorescence of BjaR receiver cells grown in the presence of their activators, 3OC6-HSL, 3OC12-HSL and C4-HSL, respectively (Supplementary Fig. 13a).
(§3) The BjaR reporter plasmids were retransformed into E. coli XL10-Gold cells for each experiment. A single colony was used to inoculate 5 ml LB + Amp media and incubated at 37 °C, 225 r.p.m. overnight. Overnight cultures were diluted 1/250 or 1/500 in 5 ml M9 minimal media + Amp and incubated at 37 °C, 225 r.p.m. for 3 h and 45 min (until OD600 = ~0.075). Cultures were diluted down to OD600 = 0.05 with M9 minimal media + Amp, and 200 µl was added to wells of a 96-well plate containing 1 µl IV-HSL dissolved in DMSO or 1 µl BjaI CFPS reactions (IV-HSL concentrations obtained from serial dilution from 63.2 µM to 632 pM; final DMSO concentration = 0.5%). Cells were incubated at 37 °C, 800 r.p.m., in a thermomixer with a heated lid for 4 h. Fluorescence and OD600 were measured in a Tecan M1000 infinite plate reader (excitation, 488 nm; emission, 510 nm; bandwidth, 5 nm; gain, 101 and z position, 21,311 µm). The dose–response curves were fitted to the function indicated by Eq. (1), where a = maximal fluorescence output, b = basal fluorescence output, X = concentration of AHSL, GFP = fluorescence at the given condition, EC50 = AHSL at 50% maximal fluorescence output and h = hill coefficient. EC50 and h were derived using the nonlinear regression model based on Eq. (1), in MATLAB. A summary of the dose–response data is available in Supplementary Table 1.1 GFP=b+a−b/1+10^logEC50−X×h

Test [2] relates to BjaRS107R (B0033|ATG) receiver cells. The test is described as above. It is filed as cell-based, E. coli XL10-Gold.
From the text: as §1, §2, §3

Values joined by “and” are separate entries in the source; they are usually repeats but may differ in a detail not shown here. Equal entries are not always repeated. “Also recorded” adds a separate entry of the source.

In the case of `CCCCCCCCCCCC(=O)N[C@H]1CCOC1=O` [C12-HSL], the Mean normalised fluorescence is listed as 3660.47 in test [1] (Log([ASHL]) -6.5); 1319.41 in test [1] (Log([ASHL]) -7); 1262.26 in test [1] (Log([ASHL]) -7.5); 1041.4 in test [1] (Log([ASHL]) -8); 1040.51 in test [1] (Log([ASHL]) -8.5); 1031.28 in test [1] (Log([ASHL]) -9). For the same compound, the Mean normalised fluorescence in test [1] (Log([ASHL]) -9.5) came out at 1017.68; in test [1] (Log([ASHL]) -10), 1062.17; in test [1] (Log([ASHL]) -10.5), 1063.23; in test [1] (Log([ASHL]) -11) it was 1104.13; in test [1] (Log([ASHL]) -11.5), 1958.08. The Normalised fluorescence was 1877.08 and 986.388 and 1094.76 in test [1] (Log([ASHL]) -7); 1653.64 and 971.756 and 1161.39 in test [1] (Log([ASHL]) -7.5); 1139.61 and 918.045 and 1066.55 in test [1] (Log([ASHL]) -8); 943.135 and 1084.52 and 1093.88 in test [1] (Log([ASHL]) -8.5); 984.805 and 1073.68 and 1035.35 in test [1] (Log([ASHL]) -9); 918.306 and 1057.93 and 1076.79 in test [1] (Log([ASHL]) -9.5). Besides, the Normalised fluorescence in test [1] (Log([ASHL]) -10) was 938.8 and 1069.72 and 1178; in test [1] (Log([ASHL]) -10.5), 1055.63 and 1095.89 and 1038.16; in test [1] (Log([ASHL]) -11) it was 961.19 and 1115.34 and 1235.86. The GFP in test [1] (Log([ASHL]) -7) was 569 and 370 and 480; in test [1] (Log([ASHL]) -7.5) it was 519 and 366 and 490; in test [1] (Log([ASHL]) -8) it was 388 and 367 and 474; in test [1] (Log([ASHL]) -8.5), 358 and 472 and 378; in test [1] (Log([ASHL]) -9) it was 376 and 464 and 363; in test [1] (Log([ASHL]) -9.5) it was 351 and 459 and 368. In addition, the GFP is 357 and 459 and 389 in test [1] (Log([ASHL]) -10); 379 and 459 and 370 in test [1] (Log([ASHL]) -10.5); 359 and 475 and 401 in test [1] (Log([ASHL]) -11); 637 and 706 and 473 in test [1] (Log([ASHL]) -11.5).
Regarding `CCCCCC(=O)N[C@H]1CCOC1=O` [C6HSL], the Mean normalised fluorescence in test [1] (Log([ASHL]) -6.5) was 1368.65; in test [1] (Log([ASHL]) -7) it was 1069.59; in test [1] (Log([ASHL]) -7.5), 1072.17; in test [1] (Log([ASHL]) -8), 1019.8; in test [1] (Log([ASHL]) -8.5), 1002.73; in test [1] (Log([ASHL]) -9), 1027.01. Besides, the Mean normalised fluorescence came to 1017.95 in test [1] (Log([ASHL]) -9.5); 1072.17 in test [1] (Log([ASHL]) -10); 1041.96 in test [1] (Log([ASHL]) -10.5); 1037.02 in test [1] (Log([ASHL]) -11); 1058.71 in test [1] (Log([ASHL]) -11.5). Besides, the Normalised fluorescence in test [1] (Log([ASHL]) -6.5) is 1655.84 and 1049.46 and 1400.63; in test [1] (Log([ASHL]) -7), 1188.52 and 915.717 and 1104.54; in test [1] (Log([ASHL]) -7.5), 1112.94 and 960.351 and 1143.21; in test [1] (Log([ASHL]) -8), 1032.26 and 951.298 and 1075.83; in test [1] (Log([ASHL]) -8.5) it was 909.599 and 1094.09 and 1004.49; in test [1] (Log([ASHL]) -9), 916.088 and 1080.14 and 1084.79. Further, the Normalised fluorescence in test [1] (Log([ASHL]) -9.5) is 932.091 and 1057.66 and 1064.1; in test [1] (Log([ASHL]) -10), 960.615 and 1126.04 and 1129.87; in test [1] (Log([ASHL]) -10.5) it was 969.437 and 1060.85 and 1095.6; in test [1] (Log([ASHL]) -11), 937.562 and 1077.9 and 1095.59; in test [1] (Log([ASHL]) -11.5), 974.837 and 1085.17 and 1116.13. Moreover, the GFP in test [1] (Log([ASHL]) -6.5) was 525 and 399 and 567; in test [1] (Log([ASHL]) -7), 407 and 365 and 478; in test [1] (Log([ASHL]) -7.5) it was 387 and 361 and 491; in test [1] (Log([ASHL]) -8), 373 and 371 and 472; in test [1] (Log([ASHL]) -8.5), 364 and 473 and 363; in test [1] (Log([ASHL]) -9), 364 and 464 and 378. The GFP in test [1] (Log([ASHL]) -9.5) was 365 and 455 and 371; in test [1] (Log([ASHL]) -10), 370 and 475 and 378; in test [1] (Log([ASHL]) -10.5) it was 369 and 456 and 376; in test [1] (Log([ASHL]) -11), 358 and 462 and 368; in test [1] (Log([ASHL]) -11.5), 366 and 368 and 469.
As for `CCCC(=O)CC(=O)N[C@H]1CCOC1=O` [3OC6-HSL, N-(3-oxo-hexanoyl)-L-homoserine lactone], the results for the “gfp expression in response to non-cognate AHSL” value in test [2] and in test [1] were “minimal GFP was produced” and “did not express gfp; also recorded: minimal GFP was produced”, respectively.
For `CCCCCCCCCC(=O)CC(=O)N[C@H]1CCOC1=O` [3OC12-HSL], the entries for the “gfp expression in response to non-cognate AHSL” value in test [2] and in test [1] were “minimal GFP was produced” and “did not express gfp; also recorded: minimal GFP was produced”, respectively.
For the compound `CCCC(=O)N[C@H]1CCOC1=O` [C4HSL], the Mean normalised fluorescence in test [1] (Log([ASHL]) -6.5) came out at 89755.1; in test [1] (Log([ASHL]) -7), 24851.4; in test [1] (Log([ASHL]) -7.5), 5633.53; in test [1] (Log([ASHL]) -8), 2030.88; in test [1] (Log([ASHL]) -8.5), 1297.09; in test [1] (Log([ASHL]) -9), 1170.67. For the same compound, the Mean normalised fluorescence is 1170.76 in test [1] (Log([ASHL]) -9.5); 1105.3 in test [1] (Log([ASHL]) -10); 1140.47 in test [1] (Log([ASHL]) -10.5); 1127.16 in test [1] (Log([ASHL]) -11); 1165.29 in test [1] (Log([ASHL]) -11.5). Further, the Normalised fluorescence was 87597.7 and 86111.2 and 95556.3 in test [1] (Log([ASHL]) -6.5); 25795.6 and 21987 and 26771.5 in test [1] (Log([ASHL]) -7); 5943.36 and 4742.76 and 6214.47 in test [1] (Log([ASHL]) -7.5); 2169.85 and 1704.52 and 2218.28 in test [1] (Log([ASHL]) -8); 1166.04 and 1369.65 and 1355.57 in test [1] (Log([ASHL]) -8.5); 1077.7 and 1245.14 and 1189.19 in test [1] (Log([ASHL]) -9). Moreover, the Normalised fluorescence in test [1] (Log([ASHL]) -9.5) is 1086.47 and 1200.78 and 1225.03; in test [1] (Log([ASHL]) -10), 1065.28 and 1106.75 and 1143.86; in test [1] (Log([ASHL]) -10.5) it was 1078 and 1145.04 and 1198.38; in test [1] (Log([ASHL]) -11), 1056.83 and 1148.2 and 1176.47; in test [1] (Log([ASHL]) -11.5) it was 1094.25 and 1223.38 and 1178.24. The GFP was 21193 and 21411 and 30615 in test [1] (Log([ASHL]) -6.5); 6504 and 5697 and 8639 in test [1] (Log([ASHL]) -7); 1544 and 1323 and 2047 in test [1] (Log([ASHL]) -7.5); 628 and 544 and 810 in test [1] (Log([ASHL]) -8); 416 and 558 and 438 in test [1] (Log([ASHL]) -8.5); 387 and 507 and 403 in test [1] (Log([ASHL]) -9). In addition, the GFP in test [1] (Log([ASHL]) -9.5) was 387 and 492 and 393; in test [1] (Log([ASHL]) -10), 377 and 461; in test [1] (Log([ASHL]) -10.5), 375 and 468 and 384; in test [1] (Log([ASHL]) -11) it was 372 and 467 and 379; in test [1] (Log([ASHL]) -11.5), 376 and 387 and 476.
